The structures appear in SMILES notation. Like-named read-outs stand apart in the source and are kept apart here.

The source of these data is patent US11530186B2, “Inhibitors for the β-catenin / T-cell factor protein-protein interaction” (H. LEE MOFFITT CANCER CENTER AND RESEARCH INSTITUTE, INC., priority 2018, dated 2022).

The test system of one test is A549 cells. Description: MTS cell viability assay, A549. In kind it is cell-based. To be noted: Homo sapiens, 72 h, mean ± SD (n = 3), Table 4, read-out: MTS cell viability IC50, Wnt normal A549. As to the method:
(§1) MTS Cell Viability Assay. Colorectal cancer cells (SW480 and HCT116), TNBC cells (MDA-MB-231, MDA-MB-468, and BT-20), and lung cancer A549 cells were seeded in 96-well plates at 5×10^3 cells/well, maintained overnight at 37° C., and incubated with the tested compounds at various concentrations. Cell viability was monitored after 72 h using a freshly prepared mixture of 1 part phenazine methosulfate (PMS, Sigma) solution (0.92 mg/mL) and 19 parts 3-(4,5-dimethylthiazol-2-yl)-5-(3-carboxymethoxyphenyl)-2-(4-sulfophenyl)-2H-tetrazolium (MTS, Promega) solution (2 mg/mL). Cells were incubated in 10 μL of this solution at 37° C. for 3 h, and A490 was measured. The effect of each compound is expressed as the concentration required to reduce A490 by 50% (IC50) relative to DMSO-treated cells. Experiments were performed in triplicate.
In general terms: Tetrazolium assays rely on reduction of a dye to a coloured formazan, in cell work by metabolically active cells.

The next test has as its system SW480 cells. Description: MTS cell viability assay, SW480. In kind it is cell-based. To be noted: Homo sapiens, SW480, 72 h, mean ± SD (n = 3). As to the method:
as §1

The target of test [1] is T1, β-catenin/Tcf protein-protein interaction (Homo sapiens, UniProt P35222).
T1 construct: Wild-type β-catenin (residues 138-781) were cloned into a pET-28b vector; 6×histidine (C); made in house; host or cells: E. coli BL21 DE3
T1 sequence (P35222 138-781): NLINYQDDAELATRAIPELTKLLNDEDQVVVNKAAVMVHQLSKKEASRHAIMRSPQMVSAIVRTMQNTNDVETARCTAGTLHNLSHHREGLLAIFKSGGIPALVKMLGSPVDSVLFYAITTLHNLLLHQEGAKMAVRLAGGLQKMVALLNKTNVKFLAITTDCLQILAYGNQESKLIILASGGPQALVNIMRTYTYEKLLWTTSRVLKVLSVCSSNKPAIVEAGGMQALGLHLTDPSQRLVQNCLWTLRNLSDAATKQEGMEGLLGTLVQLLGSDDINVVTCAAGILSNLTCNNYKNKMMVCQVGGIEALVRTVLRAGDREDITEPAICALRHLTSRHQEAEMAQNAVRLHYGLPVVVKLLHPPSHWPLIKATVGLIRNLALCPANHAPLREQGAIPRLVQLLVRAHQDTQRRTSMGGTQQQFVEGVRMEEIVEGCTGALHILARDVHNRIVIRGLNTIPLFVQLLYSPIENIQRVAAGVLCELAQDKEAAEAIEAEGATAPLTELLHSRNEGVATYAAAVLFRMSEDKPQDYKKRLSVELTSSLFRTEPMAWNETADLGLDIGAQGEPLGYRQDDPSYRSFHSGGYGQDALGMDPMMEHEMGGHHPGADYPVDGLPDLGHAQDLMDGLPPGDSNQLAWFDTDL
Briefly: FP competitive inhibition assay. In kind it is binding. The gist of the method: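 His-tagged human β-catenin (residues 138-781, E. coli-expressed) at 10 nM with 2.5 nM fluorescein-labeled Tcf4 (7-51) in PBS-type buffer with bovine γ-globulin and 0.01% Triton X-100. Compounds added, 1.5 h at 4 °C, 1% DMSO, before fluorescence polarization read. IC50 by nonlinear fit; Ki derived from IC50.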

The test system of the next test is HCT116 cells. Briefly: MTS cell viability assay, HCT116. Format: cell-based. The note with it: Homo sapiens, HCT-116; 72 h; mean ± SD (n = 3); Table 5; read-out: MTS cell viability IC50, Wnt hyperactive cancer cells HCT116. Here is the method: as §1
Setting [2] is: Table 4, read-out: MTS cell viability IC50, Wnt hyperactive SW480 Cells (converted).
Where [3] appears, read: Assay 1, mean ± SD (n = 3), read-out: Ki ± SD, Assay 1.
[4] abbreviates: Assay 2, mean ± SD (n = 3), read-out: Ki ± SD, Assay 2.
[5] abbreviates: Table 5, read-out: MTS cell viability IC50, Wnt hyperactive cancer cells SW480.
Where [6] appears, read: Assay 3, mean ± SD (n = 3), read-out: Ki ± SD, Assay 3.

As a reminder, the IC50 is the concentration needed to halve the response being measured. `COC(=O)c1ccc2c(c1)c(CCc1ccc(Cl)cc1)c(CCc1nc3ccccc3[nH]1)n2CCc1nn[nH]n1` [Compound 34, Methyl 2-(2-(1H-benzo[d]imidazol-2-yl)ethyl)-1-(2-(2H-tetrazol-5-yl)ethyl)-3-(4-chlorophenethyl)-1H-indole-5-carboxylate]: the IC50 is 120 ± 44 µM with A549 cells and 69 ± 11 µM in the test with SW480 cells (setting [2]).
The term Ki denotes the dissociation constant of the complex between target and ligand, obtained from inhibition or displacement. As to `O=C(NCc1ccc(Cl)cc1)c1ccc2c(c1)c(CCc1ccc(F)cc1)c(CCc1nc3ccccc3s1)n2CCc1nn[nH]n1` [Compound 45, 1-(2-(2H-tetrazol-5-yl)ethyl)-2-(2-(benzo[d]thiazol-2-yl)ethyl)-N-(4-chlorobenzyl)-3-(4-fluoro-phenethyl)-1H-indole-5-carboxamide], the Ki in test [1] (setting [3]) worked out at 0.97 ± 0.39 µM; in test [1] (setting [4]), 0.7 ± 0.02 µM. The IC50 in the test with HCT116 cells turned out to be 12 ± 1.9 µM; with SW480 cells (setting [5]), 14 ± 2.2 µM.
For `COc1ccc2sc(CCc3c(CCc4ccc(Cl)cc4)c4cc(C(=O)NCc5ccccc5N(C)C)ccc4n3CCc3nn[nH]n3)nc2c1` [Compound 54, 1-(2-(2H-tetrazol-5-yl)ethyl)-3-(4-chlorophenethyl)-N-(2-(dimethylamino)benzyl)-2-(2-(5-methoxybenzo[d]thiazol-2-yl)ethyl)-1H-indole-5-carboxamide] the same measures were 1.9 ± 0.14 µM, 3 ± 0.24 µM, 11 ± 1.7 µM and 11 ± 1.5 µM.
`COc1ccc2sc(CCc3c(CCc4ccc(Cl)cc4)c4cc(C(=O)NCc5ccccn5)ccc4n3CCc3nn[nH]n3)nc2c1` [Compound 55, 1-(2-(2H-tetrazol-5-yl)ethyl)-3-(4-chlorophenethyl)-2-(2-(5-methoxybenzo[d]thiazol-2-yl)ethyl)-N-(pyridin-2-ylmethyl)-1H-indole-5-carboxamide]: the Ki in test [1] (setting [3]) worked out at 2.9 ± 0.5 µM; in test [1] (setting [4]), 5.1 ± 0.42 µM. Further, the IC50 with HCT116 cells is 20 ± 2.7 µM; in the test with SW480 cells (setting [5]), 13 ± 1.7 µM.
For `COc1ccc2sc(CCc3c(CCc4ccc(Cl)cc4)c4cc(C(=O)NCc5ccncc5)ccc4n3CCc3nn[nH]n3)nc2c1` [Compound 56, 1-(2-(2H-tetrazol-5-yl)ethyl)-3-(4-chlorophenethyl)-2-(2-(5-methoxybenzo[d]thiazol-2-yl)ethyl)-N-(pyridin-4-ylmethyl)-1H-indole-5-carboxamide] the same measures were 4.2 ± 0.43 µM, 1.9 ± 0.17 µM, 23 ± 2.5 µM and 14 ± 1.7 µM.
In the same order, the values of `COc1ccc2sc(CCc3c(CCc4ccc(Cl)cc4)c4cc(C(=O)NCc5ccncn5)ccc4n3CCc3nn[nH]n3)nc2c1` [Compound 57, 1-(2-(2H-tetrazol-5-yl)ethyl)-3-(4-chlorophenethyl)-2-(2-(5-methoxybenzo[d]thiazol-2-yl)ethyl)-N-(pyrimidin-4-ylmethyl)-1H-indole-5-carboxamide] are 3.6 ± 0.35 µM, 2.8 ± 0.17 µM, 24 ± 2.8 µM and 19 ± 1.6 µM.
`COc1ccc2sc(CCc3c(CCc4ccc(Cl)cc4)c4cc(C(=O)NCc5cnccn5)ccc4n3CCc3nn[nH]n3)nc2c1` [Compound 58, 1-(2-(2H-tetrazol-5-yl)ethyl)-3-(4-chlorophenethyl)-2-(2-(5-methoxybenzo[d]thiazol-2-yl)ethyl)-N-(pyrazin-2-ylmethyl)-1H-indole-5-carboxamide]: the Ki in test [1] (setting [3]) turned out to be 2 ± 0.29 µM; in test [1] (setting [4]) it was 7.6 ± 0.94 µM. The IC50 in the test with HCT116 cells was determined as 12 ± 1.8 µM; in the test with SW480 cells (setting [5]) it was 19 ± 1.8 µM.
`COc1ccc2sc(CCc3c(CCc4ccc(Cl)cc4)c4cc(C(=O)NCc5csc(C)n5)ccc4n3CCc3nn[nH]n3)nc2c1` [Compound 60, 1-(2-(2H-tetrazol-5-yl)ethyl)-3-(4-chlorophenethyl)-2-(2-(5-methoxybenzo[d]thiazol-2-yl)ethyl)-N-((2-methylthiazol-4-yl)methyl)-1H-indole-5-carboxamide]: the inhibition constant (Ki) came to 0.93 ± 0.092 µM in test [1] (setting [3]) and 4.7 ± 0.28 µM in test [1] (setting [4]). In addition, the figures for the IC50 in the test on HCT116 cells and in the test with SW480 cells (setting [5]) were 18 ± 2.8 µM and 14 ± 1.9 µM, respectively.
For `COc1ccc2sc(CCc3c(CCc4ccc(Cl)cc4)c4cc(C(=O)NCc5ccno5)ccc4n3CCc3nn[nH]n3)nc2c1` [Compound 61, 1-(2-(2H-tetrazol-5-yl)ethyl)-3-(4-chlorophenethyl)-N-(isoxazol-5-ylmethyl)-2-(2-(5-methoxybenzo[d]thiazol-2-yl)ethyl)-1H-indole-5-carboxamide] the same measures were 1 ± 0.094 µM, 2.9 ± 0.24 µM, 40 ± 5.3 µM and 35 ± 4.3 µM.
For `COc1ccc2sc(CCc3c(CCc4ccc(Cl)cc4)c4cc(C(=O)NCc5ccon5)ccc4n3CCc3nn[nH]n3)nc2c1` [Compound 62, 1-(2-(2H-tetrazol-5-yl)ethyl)-3-(4-chlorophenethyl)-N-(isoxazol-3-ylmethyl)-2-(2-(5-methoxybenzo[d]thiazol-2-yl)ethyl)-1H-indole-5-carboxamide] the same measures were 3.1 ± 0.18 µM, 7.6 ± 0.55 µM, 28 ± 3.8 µM and 21 ± 2.1 µM.
On to `COc1ccc2sc(CCc3c(CCc4ccc(Cl)cc4)c4cc(C(=O)OCc5ccc(Cl)cc5)ccc4n3CCc3nn[nH]n3)nc2c1` [Compound 70, 4-Chlorobenzyl 1-(2-(2H-tetrazol-5-yl)ethyl)-3-(4-chlorophenethyl)-2-(2-(5-methoxybenzo-[d]thiazol-2-yl)ethyl)-1H-indole-5-carboxylate], for which the Ki was found to be 2.6 ± 0.57 µM in test [1] (setting [3]), 0.22 ± 0.06 µM in test [1] (setting [4]) and 2.6 ± 0.32 µM in test [1] (setting [6]). Besides, the IC50 in the test on A549 cells is 310 ± 27 µM; in the test on SW480 cells (setting [2]), 160 ± 17 µM.
As to `Cc1ccc(CCc2c(-c3ccsc3)n(CCc3nn[nH]n3)c3ccc(C(=O)O)cc23)cc1` [Compound 78, 1-(2-(2H-tetrazol-5-yl)ethyl)-3-(4-methylphenethyl)-2-(thiophen-3-yl)-1H-indole-5-carboxylic acid], the Ki in test [1] (setting [3]) turned out to be 0.4 ± 0.14 µM; in test [1] (setting [4]) it was 0.97 ± 0.14 µM; in test [1] (setting [6]), 0.25 ± 0.079 µM; in test [1] (Assay 4, mean ± SD (n = 3), read-out: Ki ± SD, Assay 4) it was 0.36 ± 0.07 µM; in test [1] (Assay 5, mean ± SD (n = 3), read-out: Ki ± SD, Assay 5), 0.23 µM. Moreover, the IC50 in the test on HCT116 cells and in the test on SW480 cells (setting [5]) was over 400 µM each time.
Consider `Cc1ccc(CCc2c(-c3ccsc3)n(CCc3nn[nH]n3)c3ccc(C(=O)NO)cc23)cc1` [Compound 90, 1-(2-(2H-tetrazol-5-yl)ethyl)-N-hydroxy-3-(4-methylphenethyl)-2-(thiophen-3-yl)-1H-indole-5-carboxamide], for which the Ki in test [1] (setting [3]) amounted to 0.34 ± 0.043 µM; in test [1] (setting [4]), 0.24 ± 0.043 µM. Moreover, the IC50 was 133 ± 4.1 µM in the test on HCT116 cells and 115 ± 22 µM in the test with SW480 cells (setting [5]).
As to `Cc1ccc(CCc2c(-c3ccsc3)n(CCc3nn[nH]n3)c3ccc(C(=O)NCc4ccon4)cc23)cc1` [Compound 93, 1-(2-(2H-tetrazol-5-yl)ethyl)-N-(isoxazol-3-ylmethyl)-3-(4-methylphenethyl)-2-(thiophen-3-yl)-1H-indole-5-carboxamide], the Ki in test [1] (setting [3]) is 7.2 ± 0.77 µM; in test [1] (setting [4]) it was 7.4 ± 0.23 µM; in test [1] (setting [6]) it was 13 ± 1.3 µM. Besides, the IC50 is 44 ± 5.4 µM in the test on HCT116 cells and 36 ± 3.9 µM in the test with SW480 cells (setting [5]).
